Source: patent US8722714B2, “Oxazolidine derivatives as NMDA antagonists” (The Honk Kong University of Science and Technology, priority 2008, dated 2014)

Key:
NMDA receptor = assay: Whole-cell patch clamp of NMDA-induced current in hippocampal neurons; format: cell-based, rat; conditions: compound 500 uM co-applied with NMDA 200 uM
Method: Hippocampal neurons were prepared from embryonic day 18 Sprague-Dawley rats. After the hippocampus had been removed from the brain, isolated cells were plated onto Poly d-Lysine (PDL) (P0899, Sigma)-coated 35 mm dishes (153066, NUNC) at a density of 3×10^5 cell per plate using Neurobasal Medium (NB) (21103-049, Gibco) with B27 supplement (17504-044, Gibco), penicillin/streptomycin (15140, Gibco) and 1 mM L-glutamine (25030, Gibco). The cell culture was incubated at 37° C. in a humidified atmosphere of 5% CO2 in air. Half of the medium was changed with NB, B27 and 50 μM L-glutamine every 2 to 3 days. On day 12 in vitro (12 DIV), whole-cell patch clamp was performed. The internal solution contained 120 mM cesium chloride, 20 mM tetraethylammonium chloride, 2 mM magnesium chloride, 1 mM calcium chloride and 10 mM HEPES (pH 7.2). The external solution contained 137 mM sodium chloride, 1 mM sodium bicarbonate, 0.34 mM sodium phosphate dibasic, 5.37 mM potassium chloride, 0.44 mM potassium phosphate monobasic, 2.5 mM HEPES (pH 7.4) and 22.2 mM glucose. Samples mixed with 50 μM NMDA (M3262, Sigma) were arranged in linear array of up to 8 individual controlled pipes (List Medical, Germany) which were connected to solution reservoirs. Memantine (10 μM, M9292, Sigma) was used as a positive control. Pipettes were fire-polished to produce a pipette resistance of 3-5 MΩ. Holding potential of patched cells was kept at −80 mV and currents were recorded using Axopatch-200B amplifier (Axon Instruments, USA). Tetrodotoxin (5 μM) and bicuculline methiodide (20 μM) (0109, Tocris) were present in the bath solution to block synaptic transmission mediated by voltage-gated sodium channels and […], respectively. Data was analyzed by pClamp9 software and percentage of inhibition on NMDA-induced current was represented in comparison to solvent control.
The NMDA receptor is a gated ion channel, which allows inflow of current during a nerve impulse. Antagonists to the receptor would prevent the inflow of current.
In FIG. 1A, hippocampal neurons from embryonic day 18 rats were isolated, trypsinized, plated onto 35-mm plates at a density of 3×10^4 cells/plate and cultured in Neurobasal medium (NB) supplemented with B27 nutrient. Rat hippocampal neurons (10-14 DIV) were treated with NMDA (50 μM) in the absence or presence of the compound LC-02 (10 μg/mL). Data is presented as % of NMDA-induced current. DMSO is the solvent control.
(§1) In FIG. 1B, NMDA antagonistic effect of LC-02 on current responses of a single hippocampal neuron. NMDA (200 uM) was applied for 2.5 sec every 30 sec but these inter-response intervals have been deleted from the above figure for a better resolution of the kinetics of individual responses (blank space in trace). LC-02 (500 uM) was co-applied with NMDA.
In FIG. 1C, effects of LC-02 on pooled NMDA current responses. Normalized peak and plateau currents are shown in the absence (DMSO) and presence of LC-02.
as §1, with “8, (a)” for “1B,”, “LC-06” for “LC-02”, “NMDA. […] (b) Effects of LC-06 on pooled NMDA current responses. Normalized peak and plateau currents are shown in the absence (DMSO) and presence of LC-06.” for “NMDA.”
as §1, with “9, (a)” for “1B,”, “LC-24” for “LC-02”, “NMDA. […] (b) Effects of LC-24 on pooled NMDA current responses. Normalized peak and plateau currents are shown in the absence (DMSO) and presence of LC-24. […]” for “NMDA.”

[1] = tested on: rat primary cortical neurons; assay: Neuron survival assay against NMDA insult (LDH release); format: cell-based; conditions: NMDA 20 μM; for protection of rat primary cortical neurons from NMDA insults (LDH release, fold change vs DMSO): compounds 10-30 μg/ml, 11 DIV; for cell death (LDH release, cell cytotoxicity vs DMSO): compound 10 μg/mL, DIV 11
Method: Primary cortical and hippocampal neurons were prepared from embryonic day 18 (E18) Sprague-Dawley rats. Neurons were plated on 24-well plate (TPP, Corning) at a density of 2×10^5 cells per well using Neurobasal medium (Invitrogen) supplemented with 2% B27 (Invitrogen). Neurons at 11-12 days in vitro (12 DIV) were subjected to drug treatment. Neurons were pretreated with the test compound for 2 hours prior to NMDA treatment. 0.1 μM (+)-MK-801 Hydrogen Maleate (Sigma) was added as a positive control. Briefly, the neurons were rinsed with Locke's solution (5 mM potassium chloride, 128 mM sodium chloride, 2.7 mM calcium chloride, 1 mM di-sodium hydrogen orthophosphate, 5 mM HEPES and 10 mM glucose in Milli-Q water) without Mg^2+, and incubated with addition of glycine (10 μM) for 15 minutes. After the incubation, the neurons were co-treated with the test compound (dissolved in Locke's plus glycine solution) and NMDA (20 μM; Sigma) for 20 minutes. Neurons were rinsed with Locke's plus Mg^2+ and replaced with fresh growth medium. The cell death was assayed and quantified using the lactate dehydrogenase release assay (Roche) after 24 hours.
Embryonic rat cortical neurons (11 DIV) were treated with NMDA (20 μM) in the absence or presence of the LC series of compounds (10-30 μg/ml). […] LDH release in the medium after overnight incubation was measured and fold change was calculated when compared to the solvent control, DMSO.
Embryonic rat cortical neurons (DIV 11) were treated with NMDA (20 μM) in the absence or presence of LC-01 or LC-02 (μg/mL). LDH release in the medium after overnight incubation was measured and cell cytotoxicity was calculated in percentage when compared to the solvent control, DMSO.
Embryonic rat cortical neurons (DIV 11) were treated with NMDA (20 μM) in the absence or presence of LC-06 (μg/mL). LDH release in the medium after overnight incubation was measured and cell cytotoxicity was calculated in percentage when compared to the solvent control, DMSO.
Embryonic rat cortical neurons (11 DIV) were treated with NMDA (20 μM) in the absence or presence of LC-24 or LC-25 (μg/mL). LDH release in the medium after overnight incubation was measured and cell cytotoxicity was calculated in percentage when compared to solvent control (DMSO).

Row | SMILES | pooled NMDA current responses (normalized peak and plateau currents) (NMDA receptor; vs DMSO, n=6) | recovery of NMDA-induced current after compound was washed out (NMDA receptor; single hippocampal neuron) | protection of rat primary cortical neurons from NMDA insults (LDH release, fold change vs DMSO) [1] | cell death (LDH release, cell cytotoxicity vs DMSO) [1]
1 | CCC[C@H]1N[C@@H](Cc2ccccc2)C(CC)(CC)O1 [LC-25] | significantly inhibits NMDA-induced current | Partial recovery of NMDA-induced current | significantly protected | cell death was markedly reduced
2 | CCC(C)[C@@H]1N[C@H](CC)OC1(CC)CC (stereo partly shown) [LC-10] |  |  | weaker neuroprotective effects | 
3 | CC[C@@H]1N[C@@H](CC(C)C)C(CC)(CC)O1 [LC-01] |  |  | significantly protected | cell death was markedly reduced
4 | CCC[C@H]1N[C@@H](C(C)CC)C(CCC)(CCC)O1 (stereo partly shown) [LC-15] |  |  | weaker neuroprotective effects | 
5 | CCC(C)[C@@H]1N[C@@H](CC)OC1(CC)CC (stereo partly shown) [LC-09] |  |  | weaker neuroprotective effects | 
6 | CCC[C@@H]1N[C@@H](C(C)CC)C(CC)(CC)O1 (stereo partly shown) [LC-11] |  |  | weaker neuroprotective effects | 
7 | CCCC1(CCC)O[C@@H](c2ccccc2)N[C@H]1C(C)CC (stereo partly shown) [LC-16] |  |  | weaker neuroprotective effects | 
8 | CCCC1(CCC)O[C@@H](CC)N[C@H]1C(C)CC (stereo partly shown) [LC-14] |  |  | weaker neuroprotective effects | 
9 | CCC[C@H]1N[C@@H](C(C)CC)C(CC)(CC)O1 (stereo partly shown) [LC-12] |  |  | weaker neuroprotective effects | 
